Data reported in article PMC10815500, “Design of Two New Sulfur Derivatives of Perezone: In Silico Study Simulation Targeting PARP-1 and In Vitro Study Validation Using Cancer Cell Lines” (International Journal of Molecular Sciences, 2024).
Where two headings read alike, the source gives them in different places.

Key:
MDA-MB-231 = assay: MTT cytotoxic assay, MDA-MB-231 cells; format: cell-based; details: Homo sapiens, cancer cell line, 48 h, read-out: Inhibitory concentration (IC50) MDA-MB-231
Method: (§1) At the end of this time, 20 µL of the MTT solution (5 mg/mL) was added to each well and incubated for 4 h in the dark at 37 °C and 5% CO2. The supernatant was decanted, and the resulting formazan was dissolved in isopropyl alcohol with 4 mM HCl solution and was read in a UV/Vis reader at 590 nm. The results obtained were plotted, and the IC50 was obtained through linear regression.

MCF-7 = assay: MTT cytotoxic assay, MCF-7 cells; format: cell-based; details: Homo sapiens, MCF7, cancer cell line, 48 h, read-out: Inhibitory concentration (IC50) MCF-7
Method: as §1

Mix cells = assay: MTT cytotoxic assay, mixed culture of microglia; format: cell-based; details: normal cells, 48 h, read-out: Inhibitory concentration (IC50) Mix cells
Method: as §1, with “regression. […]” for “regression.”
(§2) of the incubation, an MTT assay was performed to determine the viability of cells under treatment. Each bar in the chart indicates the percentage means and standard error of the mean. […]
(§3) healthy endothelial cells, VERO cells, and mixed culture of microglia, employing perezone (dotted) as a control. Cells from each line were incubated without control and with increased concentrations of the studied compounds during 48 h (n= 8). At the end of the incubation, an MTT assay was performed to determine the viability of cells under treatment. Each bar in the chart indicates the percentage means and […]
(§4) (1 picture or pasted object on this page, not shown here)

VERO = assay: MTT cytotoxic assay, VERO cells; format: cell-based; details: Chlorocebus sabaeus, normal cell line, 48 h, read-out: Inhibitory concentration (IC50) VERO
Method: as §1, with “regression. […]” for “regression.”
as §2, §3, §4

PARP-1 enzyme [1] = target: T1, PARP-1 enzyme (Homo sapiens, UniProt P09874); assay: PARP-1 inhibition assay (colorimetric assay kit)
Text: Absorbances were obtained at 450 nm using a UV/Vis spectrophotometer E max Precision microplate reader (Molecular Devices, San Jose, CA, USA).

A-549 = assay: MTT cytotoxic assay, A-549 cells; format: cell-based; details: Homo sapiens, A549, cancer cell line, 48 h, read-out: Inhibitory concentration (IC50) A-549
Method: as §1

HELA = assay: MTT cytotoxic assay, Hela cells; format: cell-based; details: Homo sapiens, cancer cell line, 48 h, read-out: Inhibitory concentration (IC50) HELA
Method: as §1

Rat endothelial cells = assay: MTT cytotoxic assay, healthy endothelial cells; format: cell-based; details: Endothelial cell, normal cell line, 48 h, read-out: Inhibitory concentration (IC50) Rat endothelial cells
Method: as §1, with “regression. […]” for “regression.”
as §2, §3, §4

PARP-1 enzyme [2] = target: T1, PARP-1 enzyme; set-up: purchased BPS Bioscience Inc. 80580; details: previously demonstrated; read-out: IC50 (PARP-1 inhibition) of perezone and natural derivatives; cited from earlier work

T1 sequence (P09874 whole entry): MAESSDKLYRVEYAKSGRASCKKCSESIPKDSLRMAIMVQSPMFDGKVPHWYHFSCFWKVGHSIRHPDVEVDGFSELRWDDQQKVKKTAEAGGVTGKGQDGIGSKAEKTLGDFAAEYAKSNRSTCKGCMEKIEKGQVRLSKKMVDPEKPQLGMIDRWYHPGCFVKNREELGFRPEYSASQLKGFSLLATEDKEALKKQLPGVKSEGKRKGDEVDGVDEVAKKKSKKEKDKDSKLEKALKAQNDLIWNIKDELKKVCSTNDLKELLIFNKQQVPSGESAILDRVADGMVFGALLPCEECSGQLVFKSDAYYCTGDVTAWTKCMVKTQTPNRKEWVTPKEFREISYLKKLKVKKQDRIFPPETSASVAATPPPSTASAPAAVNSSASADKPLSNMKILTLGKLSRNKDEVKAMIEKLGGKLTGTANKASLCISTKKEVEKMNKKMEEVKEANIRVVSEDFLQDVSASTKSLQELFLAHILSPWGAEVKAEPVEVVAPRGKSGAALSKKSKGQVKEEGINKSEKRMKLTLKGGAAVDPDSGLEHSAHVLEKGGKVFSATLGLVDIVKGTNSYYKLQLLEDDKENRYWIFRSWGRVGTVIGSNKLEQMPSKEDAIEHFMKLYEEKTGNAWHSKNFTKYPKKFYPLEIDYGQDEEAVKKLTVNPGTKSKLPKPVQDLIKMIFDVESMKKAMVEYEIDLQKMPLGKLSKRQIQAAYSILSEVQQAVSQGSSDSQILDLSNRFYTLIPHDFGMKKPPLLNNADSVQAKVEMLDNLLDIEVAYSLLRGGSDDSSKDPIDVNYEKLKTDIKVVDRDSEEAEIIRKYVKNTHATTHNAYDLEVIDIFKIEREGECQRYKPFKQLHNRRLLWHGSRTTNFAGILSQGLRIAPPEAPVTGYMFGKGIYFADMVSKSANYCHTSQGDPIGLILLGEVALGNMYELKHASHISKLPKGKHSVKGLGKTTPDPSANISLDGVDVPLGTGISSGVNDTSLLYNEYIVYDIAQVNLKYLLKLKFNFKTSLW

IC50 (PARP-1 enzyme [1]) [µM] | Compound | IC50 (MDA-MB-231) [µM] | IC50 (MCF-7) [µM] | IC50 (Mix cells) [µM] | IC50 (VERO) [µM] | IC50 (A-549) [µM] | IC50 (HELA) [µM] | IC50 (Rat endothelial cells) [µM] | IC50 (PARP-1 enzyme [2]) [µM]
0.317 | CC(C)=CCCC(C)C1=C(O)C(=O)C(C)=C(Sc2ccc(F)cc2CO)C1=O (centres unmarked) [Compound 9, 2-((4-fluoro-2-(hydroxymethyl)phenyl)thio)-5-hydroxy-3-methyl-6-(6-methylhept-5-en-2-yl)cyclohexa-2.5-diene-1,4-dione] | 145 | 83.2 | 179 | 186 | > 200 | 200 | > 200 | –
– | C/C=C(/C)C(=O)OC1=C([C@H](C)CCC=C(C)C)C(=O)C=C(C)C1=O [Compound 2, perezone angelate] | – | – | – | – | – | – | – | 5.25
0.32 | CC(C)=CCCC(C)C1=C(O)C(=O)C(C)=C(Sc2ccc(CC(=O)O)cc2)C1=O (centres unmarked) [Compound 10, 2-(4-((hydroxy-2-methyl-5-(6-methylhept-5-en-2-yl)-3,6-dioxocyclohexa-1,4-dien-1-yl)thio)phenyl)acetic acid] | > 200 | > 200 | > 200 | 168 | > 200 | > 200 | > 200 | –
– | CC(C)=CCC[C@@H](C)C1=C(O)C(=O)C(C)=C(O)C1=O [Compound 3, hydroxyperezone] | – | – | – | – | – | – | – | 320
– | CC(C)=CCC[C@@H](C)C1=C(O)C(=O)C(C)=CC1=O [Compound 1, perezone] | 7.8 | 53.2 | 63.1 | 312 | 144 | 42.3 | > 200 | 181
